Measured values as given in EP0767778B1, “1-PHENOXY-3-N-ALKYLAMINOPROPAN-2-OL HALOGEN DERIVATIVES USEFUL AS MYOCARDIAL beta [sequence] RECEPTOR MARKERS AND AS beta-BLOCKING AGENTS” (CIS BIO INTERNATIONAL, priority 1994, dated 1996).

Columns and labels:
[1] = octanol-water partition coefficient at room temperature; type: physicochemical; details: pH 7
[2] = biodistribution study in the mouse (Example 22); type: in vivo, souris; details: souris swiss femelles, injection intraveineuse
Experimental: L'étude de la biodistribution des radioligands chez la souris, permet d'apprécier l'intensité relative de la fixation cardiaque de la molécule et son évolution dans le temps.
Après marquage à l'iode 123 et purification par CLHP 20µCi environ de produit sont mis en solution dans 5 ml d'une solution : éthanol 20%-sérum physiologique 80%. Après injection intraveineuse de 25 µl de cette solution dans la queue de souris vigiles (souris swiss femelles de 20 à 25 g), celles-ci (5 à chaque fois) sont sacrifiées à différents temps après l'injection. On mesure pour chaque souris les activités cardiaques, hépatique, rénale et pulmonaire. Les résultats sont exprimés en pourcentage de la dose injectée par gramme d'organe.
Le CGP12177 étant la référence, un lot de souris a été étudié après injection de CGP 12177 marqué au tritium.

[3] = test system: récepteurs β adrénergiques; assay: isolated perfused rat heart (Langendorff), antagonism of isoprenaline on dP/dt max; details: for DP/dt max: n=6
Experimental: Dans cet exemple, on teste la propriété pharmacologique antagoniste du composé 6 vis-à-vis des récepteurs β adrénergiques.
L'expérience est conduite sur coeur de rat isolé et perfusé selon la technique de Langendorff.
Après une préperfusion de 25 minutes avec une solution de Krebs-Henseleit, le coeur est perfusé avec de l'isoprénaline à la concentration de 10^-8M pendant 10 minutes; puis avec une solution d'isoprénaline à 10^-8M associée à la molécule à tester à la concentration de 10^-6M.
Si la molécule à tester diminue la dP/dt max en présence d'isoprénaline, on pourra affirmer que cette molécule se comporte comme un antagoniste de l'isoprénaline vis-à-vis des récepteurs β adrénergiques.

[4] = Isoprénaline + molécule (10^e+8 min), isoprénaline 10^-8M, test molecule 10^-6M

Compound | Coefficient de partage octanol-eau à pH 7 [1] | Biodistribution Foie ([2]; 2') | Biodistribution Rein ([2]; 2') | Biodistribution Foie ([2]; 5') | Biodistribution Rein ([2]; 5') | Biodistribution Foie ([2]; 10') | Biodistribution Rein ([2]; 10') | Biodistribution Coeur ([2]; 15") | Biodistribution Foie ([2]; 15") | Biodistribution Poumon ([2]; 15") | Biodistribution Rein ([2]; 15") | Biodistribution Coeur ([2]; 15') | Biodistribution Foie ([2]; 15') | Biodistribution Poumon ([2]; 15') | Biodistribution Rein ([2]; 15') | Biodistribution Coeur ([2]; 2 min.) | Biodistribution Poumon ([2]; 2 min.) | Biodistribution Coeur ([2]; 5 min.) | Biodistribution Poumon ([2]; 5 min.) | Biodistribution Coeur ([2]; 10 min.) | also measured
1-{4-[2-(2-iodoéthoxy) éthoxy]phénoxy}-3-isopropyl-aminopropan-2-ol [composé 16] | 6,7 | 3,6 ± 0,5 pourcentage de la dose injectée par gramme d'organe | 16,4 ± 3,6 pourcentage de la dose injectée par gramme d'organe | 7,2 ± 1,6 pourcentage de la dose injectée par gramme d'organe | 19,5 ± 5 pourcentage de la dose injectée par gramme d'organe | 7,8 ± 1,6 pourcentage de la dose injectée par gramme d'organe | 15,4 ± 2 pourcentage de la dose injectée par gramme d'organe | 20,4 ± 3,8 pourcentage de la dose injectée par gramme d'organe | 1,5 ± 0,8 pourcentage de la dose injectée par gramme d'organe | 112 ± 37 pourcentage de la dose injectée par gramme d'organe | 4 ± 2,6 pourcentage de la dose injectée par gramme d'organe | 3,6 ± 0,4 pourcentage de la dose injectée par gramme d'organe | 7,9 ± 0,5 pourcentage de la dose injectée par gramme d'organe | 29,6 ± 4 pourcentage de la dose injectée par gramme d'organe | 14 ± 2,6 pourcentage de la dose injectée par gramme d'organe | 13 ± 1,3 pourcentage de la dose injectée par gramme d'organe | 73,3 ± 10 pourcentage de la dose injectée par gramme d'organe | 7 ± 0,7 pourcentage de la dose injectée par gramme d'organe | 52,7 ± 4 pourcentage de la dose injectée par gramme d'organe | 4,1 ± 0,4 pourcentage de la dose injectée par gramme d'organe | Biodistribution Poumon ([2]; 10 min.): 38,9 ± 5,3 pourcentage de la dose injectée par gramme d'organe
CC(C)NCC(O)c1ccc(O)c(O)c1 (stereo not shown) [Isoprenaline] | – | – | – | – | – | – | – | – | – | – | – | – | – | – | – | – | – | – | – | – | DP/dt max ([3]; Isoprénaline (10^e min), isoprénaline 10^-8M alone): 2535±1233 mmHg/min; DP/dt max [3, 4]: 2398±1088 mmHg/min; augmentation de la dP/dt max par rapport à la préperfusion ([3]; isoprénaline seule 10^-8M): 254%
1-[4-(2-iodoéthylènamido)phénoxy]-3-isopropylaminopropan-2-ol [composé 15] | 2,91 | 6 ± 0,75 pourcentage de la dose injectée par gramme d'organe | 20,9 ± 2,5 pourcentage de la dose injectée par gramme d'organe | 3,6 ± 0,4 pourcentage de la dose injectée par gramme d'organe | 13,3 ± 0,6 pourcentage de la dose injectée par gramme d'organe | 2,6 ± 0,2 pourcentage de la dose injectée par gramme d'organe | 7,2 ± 0,4 pourcentage de la dose injectée par gramme d'organe | 16,2 ± 2,1 pourcentage de la dose injectée par gramme d'organe | 4,8 ± 0,2 pourcentage de la dose injectée par gramme d'organe | 55 ± 12 pourcentage de la dose injectée par gramme d'organe | 17,1 ± 1,2 pourcentage de la dose injectée par gramme d'organe | 3,2 ± 0,2 pourcentage de la dose injectée par gramme d'organe | 2,6 ± 0,2 pourcentage de la dose injectée par gramme d'organe | 11,2 ± 2,2 pourcentage de la dose injectée par gramme d'organe | 6,3 ± 1 pourcentage de la dose injectée par gramme d'organe | 14,4 ± 0,9 pourcentage de la dose injectée par gramme d'organe | 34 ± 6 pourcentage de la dose injectée par gramme d'organe | 8,4 ± 0,3 pourcentage de la dose injectée par gramme d'organe | 25 ± 6 pourcentage de la dose injectée par gramme d'organe | 3,6 ± 0,7 pourcentage de la dose injectée par gramme d'organe | Biodistribution Coeur ([2]; 30'): 2,2 ± 0,15 pourcentage de la dose injectée par gramme d'organe; Biodistribution Foie ([2]; 30'): 2,1 ± 0,1 pourcentage de la dose injectée par gramme d'organe; Biodistribution Poumon ([2]; 30'): 8,4 ± 0,8 pourcentage de la dose injectée par gramme d'organe; Biodistribution Rein ([2]; 30'): 4,8 ± 0,6 pourcentage de la dose injectée par gramme d'organe; Biodistribution Poumon ([2]; 10 min.): 13,2 ± 3,1 pourcentage de la dose injectée par gramme d'organe
CC(C)NCC(O)COc1ccc(OCOCC=CI)cc1 (racemic) [composé 10, 1-[4-(5-iodo-2-oxapent-4-ényloxy)phénoxy]3-isopropylaminopropan-2-ol] | 13,2 | 7,2 ± 1,1 pourcentage de la dose injectée par gramme d'organe | 14,8 ± 1 pourcentage de la dose injectée par gramme d'organe | 10,2 ± 1,1 pourcentage de la dose injectée par gramme d'organe | 14 ± 1,1 pourcentage de la dose injectée par gramme d'organe | 6,3 ± 3,3 pourcentage de la dose injectée par gramme d'organe | 10,7 ± 1,1 pourcentage de la dose injectée par gramme d'organe | 28,4 ± 3,6 pourcentage de la dose injectée par gramme d'organe | 1,7 ± 0,8 pourcentage de la dose injectée par gramme d'organe | 144,52 pourcentage de la dose injectée par gramme d'organe | 11,4 ± 5,1 pourcentage de la dose injectée par gramme d'organe | 3,9 ± 0,2 pourcentage de la dose injectée par gramme d'organe | 9 ± 0,2 pourcentage de la dose injectée par gramme d'organe | 2,3 ± 7 pourcentage de la dose injectée par gramme d'organe | 9,1 ± 0,4 pourcentage de la dose injectée par gramme d'organe | 15 ± 1,5 pourcentage de la dose injectée par gramme d'organe | 60 ± 10 pourcentage de la dose injectée par gramme d'organe | 9,5 ± 2,3 pourcentage de la dose injectée par gramme d'organe | 58 ± 4 pourcentage de la dose injectée par gramme d'organe | 5,3 ± 0,15 pourcentage de la dose injectée par gramme d'organe | Biodistribution Coeur ([2]; 30'): 3,1 ± 0,15 pourcentage de la dose injectée par gramme d'organe; Biodistribution Foie ([2]; 30'): 7,2 ± 0,8 pourcentage de la dose injectée par gramme d'organe; Biodistribution Poumon ([2]; 30'): 22 ± 4 pourcentage de la dose injectée par gramme d'organe; Biodistribution Rein ([2]; 30'): 7,6 ± 0,2 pourcentage de la dose injectée par gramme d'organe; Biodistribution Poumon ([2]; 10 min.): 33 ± 14 pourcentage de la dose injectée par gramme d'organe
CC(C)NCC(O)COc1cccc2ccccc12 (stereo not shown) [propranolol] | – | – | – | – | – | – | – | – | – | – | – | – | – | – | – | – | – | – | – | – | DP/dt max [3, 4]: 814±240 mmHg/min; effect on the action of isoprénaline on dP/dt max ([3]; isoprénaline 10^-8M + molecule 10^-6M): revient à la valeur basale
